This is an account of results in patent US20170065579A1, “Sustained Release Low Dose Formulations and Uses Thereof” (priority 2015, published 2017).

Data set [1] is described as follows: naltrexone release from payloaded matrices (in vitro release). It counts as physicochemical. The settings on record: in contrast to the hydrochloride form. The protocol:
The number of days of release are shown on the horizontal axis (X axis). The cumulative percentage of naltrexone release is shown on the vertical axis (Y axis). […] Release was measured under conditions of about 37 degrees Celsius. Before release was measured, steps had been taken to incorporate (payload) naltrexone into the matrices.
The number of days of release are shown on the horizontal axis (X axis). The cumulative percentage of naltrexone release is shown on the vertical axis (Y axis). Before release was measured, steps had been taken to incorporate (payload) naltrexone into the matrices.
Exemplary Formula #1—PBS Buffer Containing 0.01% Sodium Azide as Suspension and Release Medium: • 1. To a 1 L volumetric flask, add the contents of 1 package of ready-to-use powder for PBS • 2. Add sodium azide ([…]) • 3. Add Millipore water to the calibration mark • 4. Dissolve all solids • 5. Store at 8 degrees celsius (max)

For data set [2] the following is noted: in vivo, cited from earlier work.
For data set [3] the following is noted: low dosages, about 3-5 mg/day; cited from earlier work.
The next data set deals with opioid receptor. The settings on record: cited from earlier work.

As for `O=C1CC[C@@]2(O)[C@H]3Cc4ccc(O)c5c4[C@@]2(CCN3CC2CC2)[C@H]1O5` [naltrexone base, naltrexone], in data set [1], the release profiles result is “meet preferred target criteria”.
With `O=C1CC[C@@]2(O)[C@H]3Cc4ccc(O)c5c4[C@@]2(CCN3CC2CC2)[C@H]1O5` [naltrexone], the oral bioavailability result in data set [2] (po) was “good oral bioavailability”. Moreover, the duration of effect entry in data set [2] is reported as “can last for a day”. For the same molecule, in data set [3], the symptom severity entry is on record as “reduce symptom severity”. Also, the “potency relative to naloxone” value in the data set on opioid receptor is recorded as “twice the potency”.
